Source: patent US20210100777A1, “HEAT SHOCK PROTEIN (HSP) INHIBITION AND MONITORING EFFECTIVENESS THEREOF” (H. LEE MOFFITT CANCER CENTER AND RESEARCH INSTITUTE, INC., priority 2013, published 2021)

What was measured:
[1] = test system: HSPs in 8226/LR5 cells; experiment: LC-MRM relative quantification of HSPs after 17-DMAG (Example 2); type: cell-based, human; conditions: for CDC37 Fold Change, LC-MRM / HS90A Fold Change, LC-MRM / HS90B Fold Change, LC-MRM / HSP7C Fold Change, LC-MRM / HSP7E Fold Change, LC-MRM / HSP71 Fold Change, LC-MRM / HSP74 Fold Change, LC-MRM / HSPA5 Fold Change, LC-MRM / HSP90α Fold Change, LC-MRM: 8226/LR5, 50 nM; for CDC37 Fold Change, LC-MRM / HS90A Fold Change, LC-MRM / HS90B Fold Change, LC-MRM / HSP7C Fold Change, LC-MRM / HSP7E Fold Change, LC-MRM / HSP71 Fold Change, LC-MRM / HSP74 Fold Change, LC-MRM / HSPA5 Fold Change, LC-MRM: 24 hrs after treatment vs. control; for HSP90α Fold Change, LC-MRM: 24 hrs vs. control
Procedure: Cell Culture, Lysis, and HSP Sample Preparation for Mass Spectrometry. RPMI-8226 and 8226/LR5 cells were maintained as previously described (Bellamy et al., Cancer Res. 51:995-1002 (1991); Remily-Wood et al., Proteomics Clin. Appl. 5:383-96 (2011)). The heat shock protein 90 inhibitor, 17-desmethoxy-17-N,N-dimethylaminoethylamino-geldanamycin (17-DMAG), was dissolved in DMSO (100 μM stock). Based on prior IC50 measurements, the RPMI-8226 cells were treated with 100 nM 17-DMAG for 24 hours, and 8226/LR5 cells were treated with 50 nM 17-DMAG. Cells (n=10^6) were lysed using in aqueous 100 mM ammonium bicarbonate containing 8M urea for protein denaturation. Protein concentrations were measured by Bradford assays; consistent aliquots of total protein (380 ng) were injected for LC-MRM, and the same solutions were used for DI-MRM. Digestion, addition of SIS peptides, and mass spectrometry sample preparation were performed as described for standard proteins.
[…] Quantification. For HSP proteins in cell lysate, 184 transitions from 32 peptides (see Table 2) were monitored as previously described (Remily-Wood et al., Proteomics Clin. Appl. 5:383-96 (2011)). Both relative and absolute quantification were calculated from the sum of the peak areas for all detected transitions using Skyline (MacLean et al., Bioinformatics 26:966-8 (2010)) or the combination of MRMer (Martin et al., Mol. Cell Proteomics 7:2270-8 (2008)) and Post-MRMer (http://proteome.moffitt. org).

[2] = test system: matched pairs of vemurafenib naïve and resistant melanoma cell lines and melanoma cell lines with intrinsic resistance; experiment: Growth inhibition, MTT assay; type: cell-based
Procedure: Growth inhibition. Cells were plated at a density of 2.5×10^4 cells per ml and left to grow overnight before being treated with increasing concentrations of vemurafenib or XL888. After 72 hours, the levels of growth inhibition were examined using the MTT assay (Smalley et al., Br. J. Cancer 96:445-9 (2007)). […] Vemurafenib and XL888 were dissolved in 100% DMSO and stored at −20° C. as a 10 mM solution.
Statistical analysis of GI50 values. Triplicate experiments were performed for each cell line under each drug treatment. To estimate the IC50 values for each cell line for each treatment, a 4-parameter Hill equation was used to model the nonlinear sigmoid relationship between the drug concentration and % cell survival. Briefly,
where x is the drug concentration, y is the % survival, ε is the error term. The four parameters in the model to estimate are: 1) the control-level effect (E); 2) the background-level effect (B); 3) the median effect concentration (GI50); and 4) the strength of the inhibition (m). The constraint of non-negative minimum background effect (B) is imposed so the model is biologically meaningful. Levenberg-Marquardt algorithm for nonlinear least squares was used to fit the model and estimate all four parameters for each cell line under each treatment. Estimated concentration at 50% cell survival, i.e., IC50, is estimated using the plugged-in parameters after model fitting. Note that when the control and background effects are 100% and 0%, respectively, the estimated GI50 and IC50 values would be identical. To compare the estimated IC50 values between the resistance and naïve paired of cell lines, after log transformation, a paired t-test was performed for each drug.

[3] = test system: vemurafenib resistant melanoma cell lines; experiment: Apoptosis, Annexin-V staining and flow cytometry; type: cell-based; conditions: 72 or 144 hours
Procedure: Flow cytometry. […] In some studies, RPMI7951 cells were treated with 300 nM XL888 in the presence or absence of 3 μM vemurafenib and harvested after 24, 48 and 72 hours.

[4] = test system: HSP70 isoform 1 (HSP71); experiment: LC-MRM pharmacodynamic assay of HSP90 inhibition in melanoma cell lines; type: cell-based; conditions: 300 nM, 0-48 hours; naïve, intrinsically resistant and acquired resistant cell lines
Procedure: Proteomics Sample Preparation. Proteins were extracted as described for Western Blotting and processed as described in (Remily-Wood et al., Proteomics Clin. App. 5:383-96 (2011)).
Liquid chromatography, multiple reaction monitoring mass (LC-MRM) spectrometry (LC MRM) analysis. LC-MRM was performed as described in (Remily-Wood et al., Proteomics Clin. App. 5:383-96 (2011)). Protein expression was determined using the ratio of peak area of the native peptide to corresponding internal standard; normalization of tissue results was performed using GAPDH to control for cellularity (Table 9). Data were then normalized to the pretreatment (cell lines) or vehicle controls (tissue) and plotted to show the changes in expression after drug treatment.

[5] = test system: chymotrypsin like proteasome activity in M229R and 1205LuR cells; experiment: Proteasome-Glo Chymotrypsin-Like Cell Based Assay; conditions: 300 nM, 48 hours
Procedure: Measurement of proteasome activity. M229R and 1205LuR cells were harvested and plated at 7,500 cells per well in a white-walled 96 well plate. […] Proteasome activity was assessed using the Proteasome-Glo Chymotrypsin-Like Cell Based Assay (Promega; Madison, Wis.) and was measured in relative luminescence units (RLU).

[6] = test system: BIM, Mcl-1 and BMF mRNA in vemurafenib-resistant melanoma cell lines; experiment: Quantitative real-time PCR; conditions: 300 nM, 48 hours

CO[C@H]1/C=C\C=C(/C)C(=O)NC2=CC(=O)C(NCCN(C)C)=C(C[C@@H](C)C[C@H](OC)[C@H](O)[C@@H](C)/C=C(\C)[C@@H]1OC(N)=O)C2=O [17-DMAG, 17-Dimethylaminoethylamino-17-demethoxygeldanamycin]
CDC37 Fold Change, LC-MRM ([1]; Table 6): 1.08 | HS90A Fold Change, LC-MRM ([1]; Table 6): 1.23 | HS90B Fold Change, LC-MRM ([1]; Table 6): 1.28 | HSP7C Fold Change, LC-MRM ([1]; Table 6): 1.56 | HSP7E Fold Change, LC-MRM ([1]; Table 6): 0.99 | HSP71 Fold Change, LC-MRM ([1]; Table 6): 3.54 | HSP74 Fold Change, LC-MRM ([1]; Table 6): 1.34 | HSPA5 Fold Change, LC-MRM ([1]; Table 6): 1.53 | CDC37 Fold Change, LC-MRM ([1]; Table 7): 1.08 | HS90A Fold Change, LC-MRM ([1]; Table 7): 1.23 | HS90B Fold Change, LC-MRM ([1]; Table 7): 1.28 | HSP7C Fold Change, LC-MRM ([1]; Table 7): 1.56 | HSP7E Fold Change, LC-MRM ([1]; Table 7): 0.99 | HSP71 Fold Change, LC-MRM ([1]; Table 7): 3.54 | HSP74 Fold Change, LC-MRM ([1]; Table 7): 1.34 | HSPA5 Fold Change, LC-MRM ([1]; Table 7): 1.53 | HSP90α Fold Change, LC-MRM ([1]; y3 (Least Interference)): 1.26 | HSP90α Fold Change, LC-MRM ([1]; y3-y5 (DI-MRM Interference-Corrected)): 1.23 | HSP90α Fold Change, LC-MRM ([1]; y3-y5 (Selected Transitions)): 1.23 | HSP90α Fold Change, LC-MRM ([1]; y3-y6 (DI-MRM Interference-Corrected)): 1.23 | HSP90α expression increase, LC-MRM ([1]; 8226/LR5, 24 hours after treatment, same for y3-y6, y3-y5 or just y3): ~1.2 fold

CC[C@@H](C)Nc1cc(C(=O)N[C@@H]2C[C@H]3CC[C@@H](C2)N3c2ccc(C(=O)C3CC3)cn2)c(C)cc1C(N)=O [XL888, 5-((R)-sec-butylamino)-N1-((1R,3s,5S)-8-(5-(cyclopropanecarbonyl)pyridin-2-yl)-8-azabicyclo[3.2.1]octan-3-yl)-2-methylterephthalamide]
growth of the cell lines ([2]; 1 nM-10 μM, 72 hours, MTT): dose dependent decreases in the growth of all the cell lines | difference in growth inhibition / IC50 between naïve and resistant pairs of cell lines ([2]; M229/M229R, M249/M249R, WM164/WM164R, 1205Lu/1205LuR, paired t-test): no significant difference in IC50 values | apoptosis ([3]; 300 nM, every cell line tested): > 66% | apoptosis versus MEK, PI3K and MEK+PI3K inhibitors ([3]; resistance through COT, PDGFRβ overexpression and two unknown mechanisms): significantly higher levels of apoptosis than each of the other drug combinations | expression of HSP70 isoform 1 (HSP71) [4]: robust time-dependent increases | inhibiting chymotrypsin like proteasome activity [5]: less effective than the MEK+PI3K inhibitor combination | BIM mRNA expression [6]: increase in BIM mRNA | Mcl-1 expression at the mRNA level [6]: blocked Mcl-1 expression at the mRNA level | BMF mRNA expression ([6]; M229R and 1205LuR): only weakly induced BMF mRNA expression
